For this experiment, the system named is RPMI-8226 cells vs CD34+ HSPCs derived from healthy bone marrow. Briefly: In vitro colony-forming assay, myeloma cells versus normal bone marrow CD34+ cells. It is filed as cell-based, human. The note with it: colonies scored on day 14. On the procedure: In vitro colony-forming assays: Mononuclear cells derived from bone marrow or purified CD34+ cells from a healthy donor, cord blood, or MM cell RPMI-8226 were grown in semi-solid methylcellulose media (MethoCult™, H4435; STEMCELL Technologies) in the presence of indicated compounds and concentrations. A total of 10,000/mL normal bone marrow CD34+ cells and 1000/mL RPMI-8226 cells were plat-ed, and colonies were scored on day 14.

As to `NC(CC1CNc2ccccc21)C(=O)NCCCOc1ccc(N2C(=O)/C(=C/c3ccc([N+](=O)[O-])s3)SC2=S)cc1` (stereo not shown) [CCF642-34], the “potency in restricting colony formation of RPMI-8226 compared to CD34+ HSPCs” value is listed as 20 fold.
